Laboratory results taken from patent US4496568A, “Antiinflammatory thieno [2,3-c]pyridine derivatives” (PACOR, priority 1977, dated 1985).

Legend:
Format in all cases: in vivo
[1] = tested on: ovalbumin-induced systemic edema; assay: Ovalbumin-induced systemic edema (anti-inflammatory activity); conditions: rats, 100 mg/kg orally 1 hour before and simultaneously with ovalbumin, vs reference group
Experimental: (§1) The pharmacological investigation concerned the anti-inflammatory activity of the compounds of this invention. This activity was investigated according to 2 methods:
(b) Method of the ovalbumin-induced systemic edema
A simultaneous intraperitoneal injection of 1 ml ovalbumin and 0,5 ml of 1% aqueous Evans blue solution is effected in rats. On the other hand, the animals of the treated group are orally administered 100 mg/kg body weight of the test derivative, 1 hour prior to ovalbumin administration and simultaneously therewith. The intensity of the phenomenon thus induced is rated according to a scale from 1 to 5, according to the progress of the inflammatory syndrome. Thus are determined, as a function of time, the mean intensity of the edema and the percent decrease of the edema reaction with respect to the reference group.

[2] = tested on: localized carrageenin-induced edema; assay: Localized carrageenin-induced edema (anti-inflammatory activity); conditions: rats, 100 mg/kg orally 1 hour before, at, and 1 and 2.5 hours after carrageenin, vs reference group
Experimental: as §1
(a) Method of localized carrageenin-induced edema
An 1% (0.1 ml) carrageenin solution is injected in the metatarsal flexor muscles of the right hind limb of rats at time 0. The animals of the treated group are additionally administered orally 100 mg/kg body weight of the test derivative, respectively 1 hour prior to injection of the phlogogenic agent, simultaneously with said injection, and then 1 and 2.5 hours thereafter. The determinations effected with a ROCH micrometer at times 0, 1 hour 2 hrs, 3 hrs and 5 hrs after carrageenin administration provide a measure, as a function of time, of the percent anti-inflammatoryactivity, with respect to the reference group.

[3] = tested on: mice; assay: Acute intravenous toxicity LD50

## Oc1cncc2sccc12 [Derivative No. 2, 4-hydroxy-thieno[2,3-c]pyridine]
[1]
  Percent anti-inflammatory activity after 2 hrs: 49%
  Percent anti-inflammatory activity after 3 hrs: 58%
[2]
  Percent anti-inflammatory activity after 1 hr: 40%
  Percent anti-inflammatory activity after 2 hrs: 45%
  Percent anti-inflammatory activity after 3 hrs: 49%
  Percent anti-inflammatory activity after 5 hrs: 49%

## Cc1cc2c(O)cncc2s1 [Derivative No. 4, 4-hydroxy-2-methyl-thieno[2,3-c]pyridine]
[1]
  Percent anti-inflammatory activity after 2 hrs: 48%
  Percent anti-inflammatory activity after 3 hrs: 60%
[2]
  Percent anti-inflammatory activity after 1 hr: 45%
  Percent anti-inflammatory activity after 2 hrs: 49%
  Percent anti-inflammatory activity after 3 hrs: 50%
  Percent anti-inflammatory activity after 5 hrs: 52%

## Oc1cncc2ccsc12 [Derivative No. 1, 7-hydroxy-thieno[3,2-c]pyridine]
[1]
  Percent anti-inflammatory activity after 2 hrs: 44%
  Percent anti-inflammatory activity after 3 hrs: 50%
[3]
  LD50: 131 mg
[2]
  Percent anti-inflammatory activity after 1 hr: 43%
  Percent anti-inflammatory activity after 2 hrs: 46%
  Percent anti-inflammatory activity after 3 hrs: 48%
  Percent anti-inflammatory activity after 5 hrs: 49%

## Cc1ncc(O)c2ccsc12 [Derivative No. 3, 4-hydroxy-7-methyl-thieno[2,3-c]pyridine]
[1]
  Percent anti-inflammatory activity after 2 hrs: 53%
  Percent anti-inflammatory activity after 3 hrs: 61%
[2]
  Percent anti-inflammatory activity after 1 hr: 42%
  Percent anti-inflammatory activity after 2 hrs: 48%
  Percent anti-inflammatory activity after 3 hrs: 52%
  Percent anti-inflammatory activity after 5 hrs: 51%
